Test results: ChEMBL document CHEMBL4609995, “Rational design, synthesis and biological profiling of new KDM4C inhibitors” (Bioorg Med Chem, 2020); call rule not given here

Columns and labels:
[1] = target: T1, Lysine-specific demethylase 4C (Homo sapiens, UniProt Q9H3R0); assay: Inhibition of KDM4C (unknown origin) using methylated H3 peptide as substrate by chemiluminescence assay
T1 sequence (Q9H3R0 whole entry): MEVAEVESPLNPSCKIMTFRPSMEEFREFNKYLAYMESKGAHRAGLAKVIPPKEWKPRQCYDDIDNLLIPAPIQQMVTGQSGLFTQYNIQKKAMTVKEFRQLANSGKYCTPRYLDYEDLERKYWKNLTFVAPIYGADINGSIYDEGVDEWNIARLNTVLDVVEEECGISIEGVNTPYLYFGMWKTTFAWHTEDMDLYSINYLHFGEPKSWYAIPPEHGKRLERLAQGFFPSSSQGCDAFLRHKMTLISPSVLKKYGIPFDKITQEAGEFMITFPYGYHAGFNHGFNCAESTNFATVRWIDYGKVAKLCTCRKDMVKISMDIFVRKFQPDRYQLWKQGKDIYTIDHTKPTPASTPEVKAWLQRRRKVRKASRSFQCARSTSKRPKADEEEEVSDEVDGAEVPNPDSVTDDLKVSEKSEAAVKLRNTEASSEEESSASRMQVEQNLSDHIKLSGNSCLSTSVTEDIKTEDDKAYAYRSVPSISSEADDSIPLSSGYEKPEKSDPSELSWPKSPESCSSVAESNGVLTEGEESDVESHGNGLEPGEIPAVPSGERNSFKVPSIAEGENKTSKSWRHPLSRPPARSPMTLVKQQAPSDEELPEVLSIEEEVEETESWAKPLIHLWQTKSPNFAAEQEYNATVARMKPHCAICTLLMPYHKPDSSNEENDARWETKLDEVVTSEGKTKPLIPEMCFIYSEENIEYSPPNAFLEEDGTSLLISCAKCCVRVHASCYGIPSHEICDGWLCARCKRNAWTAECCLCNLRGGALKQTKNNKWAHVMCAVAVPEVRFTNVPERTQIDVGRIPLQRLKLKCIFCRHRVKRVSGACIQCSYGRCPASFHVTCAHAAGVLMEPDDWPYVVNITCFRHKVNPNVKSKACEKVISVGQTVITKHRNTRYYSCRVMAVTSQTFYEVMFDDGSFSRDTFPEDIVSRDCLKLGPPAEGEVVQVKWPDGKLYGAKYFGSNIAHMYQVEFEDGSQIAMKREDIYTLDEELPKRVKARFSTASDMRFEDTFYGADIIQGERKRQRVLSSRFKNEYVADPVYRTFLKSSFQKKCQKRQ

[2] = Substrate activity at P-gp in MDCK2-MDR1 cells at 10 uM incubated for 60 mins in presence or absence of 2 uM P-gp inhibitor elacridar by LC-MS/MS analysis; assay type: ADME, cell-based, Canis lupus familiaris; conditions: dog, mdck-mdr1, 1 h
HepG2 = assay: Antiproliferative activity against human HepG2 cells assessed as reduction in cell growth measured after 24 hrs by MTS assay; assay type: functional, cell-based; conditions: HepG2, 24 h
A549 = assay: Antiproliferative activity against human A549 cells assessed as reduction in cell growth measured after 72 hrs by Alamar blue assay; assay type: functional, cell-based; conditions: A549, 72 h
P-gp [3] = assay: Permeability across apical to basolateral side in MDCK2-MDR1 cells at 10 uM incubated for 60 mins in presence 2 uM P-gp inhibitor elacridar by LC-MS/MS analysis; assay type: ADME, cell-based, Canis lupus familiaris; conditions: dog, MDCK-MDR1, with elacridar 2 uM; read-out: permeability
[4] = Intrinsic clearance in mouse liver microsomes assessed per mg protein at 1 uM measured up to 60 mins in presence or absence of NADPH by LC-MS/MS analysis; assay type: ADME, Microsome; conditions: for microsomal CLint at 1 µM: liver microsomes, read-out: CLH
P-gp [5] = assay: Efflux ratio of permeability from basolateral to apical over apical to basolateral side in MDCK2-MDR1 cells MDCK2-MDR1 cells at 10 uM incubated for 60 mins in presence 2 uM P-gp inhibitor elacridar by LC-MS/MS analysis; assay type: ADME, cell-based, Canis lupus familiaris; conditions: dog, MDCK-MDR1, with elacridar 2 uM
[6] = target: T2, Lysine-specific demethylase 4C (Homo sapiens) (UniProt Q9H3R0); assay: Inhibition of KDM4C (unknown origin) at 10 uM using methylated H3 peptide as substrate by chemiluminescence assay relative to control
T2 sequence (whole entry): T1 sequence (Q9H3R0 whole entry)

[7] = Electrochemical behavior of the compound assessed as reduction in redox potential; assay type: physicochemical

SMILES	IC50 [1]	Activity [2]	IC50 (HepG2)	IC50 (A549)	Papp A→B at 1 h, 10 µM (P-gp [3])	CLint ([4]; microsomes, 1 h, 1 µM)	efflux ratio at 1 h, 10 µM (P-gp [5])	IC50 ([1]; read-out: IC50)	microsomal CLint at 1 µM [4]	inhibition [6]	Activity [7]
Cn1nc(-c2ccn(C)c(=O)c2)nc2c(=O)n(C)c(=O)nc1-2	Not Active	Active	4.5 µM	8.8 µM	1.1 ×10⁻⁶ cm/s	71.8 µL/min/mg	< 2	–	–	–	–
Cn1nc(-c2ccncc2)nc2c(=O)n(C)c(=O)nc1-2	–	Not Active	1.8 µM	4.3 µM	13.4 ×10⁻⁶ cm/s	–	< 2	0.019 µM	11.6 µL/min/mg	–	–
Cn1nc(-c2ccc(C#N)cc2)nc2c(=O)n(C)c(=O)nc1-2	–	Not Active	0.8 µM	1.9 µM	26.8 ×10⁻⁶ cm/s	–	< 2	0.011 µM	< 12.5 µL/min/mg	–	–
CN(/N=C/c1ccccc1)c1cc(=O)n(C)c(=O)[nH]1	–	–	–	–	–	–	–	–	–	> 70%	Active
CN(/N=C/c1ccc(O)cc1)c1cc(=O)n(C)c(=O)[nH]1	–	–	–	–	–	–	–	–	–	40 to 70%	–
COC(=O)C1(c2ccc(-c3nc4c(=O)n(C)c(=O)nc-4n(C)n3)cc2)CC1	Not Active	Not Active	1.2 µM	1.3 µM	24.9 ×10⁻⁶ cm/s	–	< 2	–	< 12.5 µL/min/mg	–	–
CN(/N=C/c1ccc(F)cc1)c1cc(=O)n(C)c(=O)[nH]1	–	–	–	–	–	–	–	–	–	> 70%	–
Cn1nc(-c2ccc(F)cc2)nc2c(=O)n(C)c(=O)nc1-2	–	Not Active	0.82 µM	1.6 µM	30.6 ×10⁻⁶ cm/s	–	< 2	0.081 µM	< 12.5 µL/min/mg	–	–
Cn1nc(-c2ccc(O)cc2)nc2c(=O)n(C)c(=O)nc1-2	–	Not Active	1.1 µM	5.8 µM	13.2 ×10⁻⁶ cm/s	–	< 2	0.242 µM	< 12.5 µL/min/mg	–	–
Cn1nc(Cc2ccccc2)nc2c(=O)n(C)c(=O)nc1-2	–	Not Active	5.1 µM	> 30 µM	25.3 ×10⁻⁶ cm/s	–	< 2	0.029 µM	< 12.5 µL/min/mg	–	–
CN(C)c1ccccc1/C=N/N(C)c1cc(=O)n(C)c(=O)[nH]1	–	–	–	–	–	–	–	–	–	40 to 70%	–
COc1ccc(-c2nc3c(=O)n(C)c(=O)nc-3n(C)n2)cc1	–	Not Active	0.8 µM	1.1 µM	34.5 ×10⁻⁶ cm/s	–	< 2	0.008 µM	< 12.5 µL/min/mg	–	–
COc1ccc(/C=N/N(C)c2cc(=O)n(C)c(=O)[nH]2)cc1	–	–	–	–	–	–	–	–	–	40 to 70%	–
Cn1nc(-c2ccccc2)nc2c(=O)n(C)c(=O)nc1-2	–	Not Active	0.87 µM	1.1 µM	34.7 ×10⁻⁶ cm/s	–	< 2	0.13 µM	< 12.5 µL/min/mg	–	–
Cn1c(=O)nc2[nH]nc(-c3ccccc3)nc-2c1=O	–	Not Active	> 25 µM	> 30 µM	35.5 ×10⁻⁶ cm/s	–	< 2	7.63 µM	< 12.5 µL/min/mg	–	–
Cn1nc(-c2ccccc2)nc2n(C)c(=O)nc1-2	–	Not Active	> 25 µM	> 30 µM	40.6 ×10⁻⁶ cm/s	–	< 2	12.7 µM	13.1 µL/min/mg	–	–
Cn1nc(-c2ccc(S(N)(=O)=O)cc2)nc2c(=O)n(C)c(=O)nc1-2	–	Not Active	5.6 µM	> 30 µM	0.8 ×10⁻⁶ cm/s	–	< 2	0.042 µM	< 12.5 µL/min/mg	–	–
CN(C)c1ccccc1-c1nc2c(=O)n(C)c(=O)nc-2n(C)n1	–	Not Active	2.1 µM	5.7 µM	18 ×10⁻⁶ cm/s	–	< 2	0.016 µM	< 12.5 µL/min/mg	–	–
Cn1c(=O)[nH]c2ccc(-c3ccccc3)cc2c1=O	–	Not Active	> 25 µM	> 30 µM	27.3 ×10⁻⁶ cm/s	–	< 2	> 10 µM	229 µL/min/mg	–	–
